# From the supplement of paper PMC10307832
# Key:
# Test in all cases: relative viability (nuclei count vs DMSO), 5 days (fraction); higher = more cells survive
# LOU-NH91 = test system: LOU-NH91
# Method in brief: (§1)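 One day after seeding in 1536-well plates, lung cancer cell lines were dosed by pin tool. Dosing was either single-drug or a fixed anchor-drug dose plus five library-drug doses (not always all listed) in √10 steps. After 5 days, nuclei were stained in one fix-and-stain step and counted on 4× images, and relative viability is the nuclei count of treated wells over that of vehicle wells, given as the median of duplicate plates.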
# HCC-44 = test system: HCC-44
# Method in brief: as §1
# NCI-H838 = test system: NCI-H838
# Method in brief: as §1
# HCC-78 = test system: HCC-78
# Method in brief: as §1
# NCI-H727 = test system: NCI-H727
# Method in brief: as §1
# NCI-H1755 = test system: NCI-H1755
# Method in brief: as §1
# SW 1573 = test system: SW 1573
# Method in brief: as §1
# HCC-366 = test system: HCC-366
# Method in brief: as §1
# NCI-H1734 = test system: NCI-H1734
# Method in brief: as §1
# NCI-H1650 = test system: NCI-H1650
# Method in brief: as §1
# NCI-H2009 = test system: NCI-H2009
# Method in brief: as §1
# UMC-11 = test system: UMC-11
# Method in brief: as §1
# ABC-1 = test system: ABC-1
# Method in brief: as §1
# LK-2 = test system: LK-2
# Method in brief: as §1
# 201T = test system: 201T
# Method in brief: as §1
# NCI-H520 = test system: NCI-H520
# Method in brief: as §1
# NCI-H2405 = test system: NCI-H2405
# Method in brief: as §1
# NCI-H2228 = test system: NCI-H2228
# Method in brief: as §1
# NCI-H1666 = test system: NCI-H1666
# Method in brief: as §1
# NCI-H1355 = test system: NCI-H1355
# Method in brief: as §1
# BEN = test system: BEN
# Method in brief: as §1
# NCI-H2347 = test system: NCI-H2347
# Method in brief: as §1
# NCI-H358 = test system: NCI-H358
# Method in brief: as §1
compound,measurement,setting,value
Cc1cnc(-c2cnc(NCCNc3ccc(C#N)cn3)nc2-c2ccc(Cl)cc2Cl)[nH]1 + COc1cccc2cc(-c3nc([C@H]4CC[C@H](C(=O)O)CC4)n4ncnc(N)c34)[nH]c12 [OSI-027] (partner 0.5 µM),relative viability,LOU-NH91; first compound 0.08 µM,0.732
same,relative viability,LOU-NH91; first compound 0.253 µM,0.709
same,relative viability,LOU-NH91; first compound 0.8 µM,0.751
same,relative viability,LOU-NH91; first compound 2.53 µM,0.673
same,relative viability,HCC-44; first compound 0.08 µM,0.555
same,relative viability,HCC-44; first compound 0.253 µM,0.483
same,relative viability,HCC-44; first compound 0.8 µM,0.485
same,relative viability,HCC-44; first compound 2.53 µM,0.932
same,relative viability,NCI-H838; first compound 0.08 µM,0.433
same,relative viability,NCI-H838; first compound 0.253 µM,0.424
same,relative viability,NCI-H838; first compound 0.8 µM,0.46
same,relative viability,NCI-H838; first compound 2.53 µM,0.846
same,relative viability,HCC-78; first compound 0.08 µM,0.41
same,relative viability,HCC-78; first compound 0.253 µM,0.391
same,relative viability,HCC-78; first compound 0.8 µM,0.366
same,relative viability,HCC-78; first compound 2.53 µM,0.438
same,relative viability,NCI-H727; first compound 0.08 µM,0.588
same,relative viability,NCI-H727; first compound 0.253 µM,0.589
same,relative viability,NCI-H727; first compound 0.8 µM,0.518
same,relative viability,NCI-H727; first compound 2.53 µM,0.442
same,relative viability,NCI-H1755; first compound 0.08 µM,0.81
same,relative viability,NCI-H1755; first compound 0.253 µM,0.737
same,relative viability,NCI-H1755; first compound 0.8 µM,0.726
same,relative viability,NCI-H1755; first compound 2.53 µM,0.756
same,relative viability,SW 1573; first compound 0.08 µM,0.538
same,relative viability,SW 1573; first compound 0.253 µM,0.483
same,relative viability,SW 1573; first compound 0.8 µM,0.33
same,relative viability,SW 1573; first compound 2.53 µM,0.363
same,relative viability,HCC-366; first compound 0.08 µM,1.01
same,relative viability,HCC-366; first compound 0.253 µM,0.489
same,relative viability,HCC-366; first compound 0.8 µM,0.558
same,relative viability,HCC-366; first compound 2.53 µM,0.695
same,relative viability,NCI-H1734; first compound 0.08 µM,0.66
same,relative viability,NCI-H1734; first compound 0.253 µM,0.547
same,relative viability,NCI-H1734; first compound 0.8 µM,0.597
same,relative viability,NCI-H1734; first compound 2.53 µM,0.616
same,relative viability,NCI-H1650; first compound 0.08 µM,0.75
same,relative viability,NCI-H1650; first compound 0.253 µM,0.61
same,relative viability,NCI-H1650; first compound 0.8 µM,0.554
same,relative viability,NCI-H1650; first compound 2.53 µM,0.56
same,relative viability,NCI-H2009; first compound 0.08 µM,0.729
same,relative viability,NCI-H2009; first compound 0.253 µM,0.597
same,relative viability,NCI-H2009; first compound 0.8 µM,0.609
same,relative viability,NCI-H2009; first compound 2.53 µM,0.496
same,relative viability,UMC-11; first compound 0.08 µM,0.594
same,relative viability,UMC-11; first compound 0.253 µM,0.477
same,relative viability,UMC-11; first compound 0.8 µM,0.591
same,relative viability,ABC-1; first compound 0.08 µM,0.751
same,relative viability,ABC-1; first compound 0.253 µM,0.411
same,relative viability,ABC-1; first compound 0.8 µM,0.553
same,relative viability,ABC-1; first compound 2.53 µM,0.649
same,relative viability,LK-2; first compound 0.08 µM,0.204
same,relative viability,LK-2; first compound 0.253 µM,0.248
same,relative viability,LK-2; first compound 0.8 µM,0.231
same,relative viability,LK-2; first compound 2.53 µM,0.318
same,relative viability,201T; first compound 0.08 µM,0.562
same,relative viability,201T; first compound 0.8 µM,0.819
same,relative viability,201T; first compound 2.53 µM,0.768
same,relative viability,NCI-H520; first compound 0.08 µM,0.24
same,relative viability,NCI-H520; first compound 0.253 µM,0.288
same,relative viability,NCI-H520; first compound 0.8 µM,0.274
same,relative viability,NCI-H520; first compound 2.53 µM,0.28
same,relative viability,NCI-H2405; first compound 0.08 µM,0.655
same,relative viability,NCI-H2405; first compound 0.253 µM,0.654
same,relative viability,NCI-H2405; first compound 0.8 µM,0.654
same,relative viability,NCI-H2405; first compound 2.53 µM,0.615
same,relative viability,NCI-H2228; first compound 0.08 µM,0.779
same,relative viability,NCI-H2228; first compound 0.253 µM,0.807
same,relative viability,NCI-H2228; first compound 0.8 µM,0.569
same,relative viability,NCI-H2228; first compound 2.53 µM,0.469
same,relative viability,NCI-H1666; first compound 0.08 µM,0.828
same,relative viability,NCI-H1666; first compound 0.253 µM,0.77
same,relative viability,NCI-H1666; first compound 0.8 µM,0.894
same,relative viability,NCI-H1666; first compound 2.53 µM,0.903
same,relative viability,NCI-H1355; first compound 0.08 µM,0.404
same,relative viability,NCI-H1355; first compound 0.253 µM,0.434
same,relative viability,NCI-H1355; first compound 0.8 µM,0.395
same,relative viability,NCI-H1355; first compound 2.53 µM,0.439
same,relative viability,BEN; first compound 0.08 µM,0.352
same,relative viability,BEN; first compound 0.253 µM,0.307
same,relative viability,BEN; first compound 0.8 µM,0.324
same,relative viability,BEN; first compound 2.53 µM,0.371
same,relative viability,NCI-H2347; first compound 0.08 µM,0.397
same,relative viability,NCI-H2347; first compound 0.253 µM,0.415
same,relative viability,NCI-H2347; first compound 0.8 µM,0.324
same,relative viability,NCI-H2347; first compound 2.53 µM,0.426
same,relative viability,NCI-H358; first compound 0.08 µM,0.843
same,relative viability,NCI-H358; first compound 0.253 µM,0.647
same,relative viability,NCI-H358; first compound 0.8 µM,0.771
same,relative viability,NCI-H358; first compound 2.53 µM,0.627
